From patent US12084680B2, “Methods for efficient derivation of human motor neurons from diverse spinal regions” (Wisconsin Alumni Research Foundation, priority 2016, dated 2024)

Legend:
H9 hESCs = assay: NKX6.1 induction in neurally differentiating H9 hESCs after 24 h treatment (flow cytometry, RT-PCR, day 3); type: cell-based, human
Experimental: (§1) NKX6.1 is the earliest expressed marker in the motor neuron development cascade in vivo, so we examined its expression in response to Wnt/β-catenin, RA, and SHH signaling during hPSC motor neuron differentiation. H9 hESCs were differentiated in E6 medium for 2 days to initiate neural fate acquisition34 and then treated with combinations of RA, purmorphamine (PM, a small molecule agonist of SHH signaling), and CHIR for 24 h (FIG. 4A). […] Using the H9 ishcat2 line, we observed that CHIR-mediated induction of NKX6.1 was β-catenin-dependent, as the optimal 3 days of shRNA-mediated CTNNB1 knockdown upstream of CHIR treatment was required to maximally reduce NKX6.1 induction to 44±1% (FIG. 4E). The correlation between NKX6.1 knockdown and days of doxycycline treatment was presumably due to the time delay for shRNA synthesis and subsequent gene knockdown in Tet-on systems. […] Exogenously added WNT3A (200 ng/mL) could also induce NKX6.1 expression (60±14%) (FIG. 4G), providing further evidence for the involvement of Wnt/β-catenin signaling in this process. In contrast, simultaneous treatment with CHIR and BMP4 (200 ng/mL), a dorsal patterning factor, reduced the expression of NKX6.1 from 91±1% to 68±2% (FIG. 4H).
hESCs were dissociated with accutase (Thermo Fisher Scientific) and reseeded at 1×10^5 cells/cm2 in E8 medium containing 10 μM ROCK inhibitor (Y27632; R&D Systems) on 6-well polystyrene tissue culture plates coated with 100 μg/mL poly-L-ornithine (PLO; Sigma) and 8 μg/well VTN-NC. The timelines and relevant growth factors/small molecules for all differentiation procedures are described in detail in the Results section and its accompanying figures. Cells were differentiated for various amounts of time in E6 medium containing the same insulin concentration as E8 medium as described above with varying combinations of soluble factors (product information and concentration ranges are found in Table 2). For neuromesodermal induction and HOX propagation, cells were sequentially cultured with FGF8b, CHIR99021 (CHIR), GDF11, and dorsomorphin (DM) as previously described. Briefly, to initiate the neuromesodermal state, cells were changed to E6 medium followed by addition of FGF8b (200 ng/ml) 24 h later. To generate cervical neuromesodermal progenitors, cells were washed with PBS, treated with accutase, and re-seeded in E6 medium containing 200 ng/ml FGF8b, 3 μM CHIR, and 10 μM Y27632 on VTN-NC-coated plates at a density of 1.5×10^5 cells/cm^2 for 48 h. To generate thoracic neuromesodermal progenitors, cells were passaged again after 72 h of CHIR treatment and re-seeded at different densities as described in the text.
Thoracic identity was reached after an additional 24 h. Then, to reach the lumbosacral level, cells were given 30 ng/ml GDF11 and 1 μM DM for an additional 48 h. For neuroectoderm induction and generation of OLIG2^+ progenitors, FGF8b was removed at the designated time points and the concentration of CHIR was increased for 6 h as described in the text, followed by a transition to media containing RA, PM, and SHH for a period of 48 h. For differentiation of the OLIG2^+ progenitors to motor neurons, cells were subcultured by en bloc passage using a cell scraper, reseeded at a 1:200 ratio in Matrigel-coated 8-well chamber slides, and differentiated for 14 days in E6 medium containing 1 μM RA, 100 nM PM, and 100 ng/mL SHH, with media exchange every 3 days (10 μM Y27632 was included during the en bloc passaging step and removed after the first media exchange). For differentiation of lumbar cultures, 1 μM DM was included in all steps. For the myoblast co-culture experiments, OLIG2^+ cultures were en bloc passaged, frozen in E6 medium containing 10% DMSO, shipped to a different location, and thawed 1:10 in 6-well plates under the same conditions as described in FIG. 5. To facilitate neuronal maturation prior to myoblast co-culture, 5 μM DAPT (Tocris) was added from days 8-14 post-thaw. […]

H9 ishcat2 hESC line = assay: Doxycycline-inducible shRNA knockdown of β-catenin (CTNNB1) during motor neuron differentiation; type: cell-based, human; conditions: H9 ishcat2, 3 days shRNA CTNNB1 knockdown upstream of CHIR 4 μM, day 3
Experimental: In the ventral neural tube, SHH signaling generates OLIG2^+ motor neuron progenitors that subsequently mature into post-mitotic ISL1^+ and/or HB9^+ motor neurons. To probe the role of Wnt/β-catenin signaling during this process in vitro, we utilized the H9 ishcat2 hESC line, which harbors a doxycycline-inducible shRNA against CTNNB1.
Similarly, we induced β-catenin knockdown while differentiating the hESCs into motor neurons via E6 neural induction with RA (1 μM), purmorphamine (PM, a small molecule agonist of sonic hedgehog signaling; 100 nM), and neurotrophic factor treatment, as previously described (FIG. 3A).
as §1
hESCs were maintained on Matrigel (BD Biosciences) in E8 medium but with 10-fold lower insulin concentration (2 mg/L). Cell lines used in this study were H9 hESCs (passage 25-45) and H9 ishcat2 hESCs (passage 35-45). […]

Cc1c[nH]c(-c2cnc(NCCNc3ccc(C#N)cn3)nc2-c2ccc(Cl)cc2Cl)n1 [CHIR, CHIR99021]
NKX6.1 expression (flow cytometry) (H9 hESCs; CHIR 4 μM without BMP4, day 3): 91±1%
NKX6.1 expression (flow cytometry) (H9 hESCs; CHIR alone 6 μM, 24 h, analysed day 3): 98±1%
NKX6.1 and OLIG2 gene expression (RT-PCR) (H9 hESCs; CHIR alone 6 μM, 24 h, day 3): sufficient to induce NKX6.1 but not OLIG2 gene expression
NKX6.1 induction (flow cytometry) (H9 ishcat2 hESC line): 44±1%
